Measured values from patent US9359645B2, “Methods for detecting diabetic nephropathy comprising measuring the expression of Smad1” (HUBIT GENOMIX INC., priority 2003, dated 2016).

System: Smad1
Assay: Smad1 morpholino antisense oligonucleotide in AGEs-treated mesangial cells (Smad1 and Col4 expression)
Assay type: cell-based, mouse
Conditions: for AGEs-mediated overproduction (overexpression) of Col4: mesangial cells treated with AGEs; for AGEs-mediated induction of Smad1: mesangial cells, 72 hr AGEs then 16 hr with oligo
Method: A glomerular mesangial cell strain was established from glomeruli isolated from normal, 4 week-old mice (C57BL/6JxSJL/J), and was identified according to the method previously described (S1). The mesangial cells were cultured in B medium (a 3:1 mixture of minimal essential medium/F12 modified with trace elements) supplemented with 1 mM glutamine, 100 units/ml penicillin, […] streptomycin and 20% fetal calf serum. The cultured cells fulfilled the criteria generally accepted for glomerular mesangial cells (S2). AGEs or BSA exposure was carried out as described previously (S3).
Mesangial cells were cultured in the presence of AGEs or BSA (as control) for 72 hours. Cells were harvested in sample buffer, resolved by SDS-polyacrylamide gel electrophoresis and transferred to nitro-cellulose membrane and subjected to Western blot using a 1:500 dilution of anti-Smad1 antibody and anti-pSmad1 antibody (Santa Cruz Biotechnology), followed by detection using an enhanced chemiluminescence detection system (Invitrogen, Carlsbad, Calif.).
Cultured cells were fixed in 4% paraformaldehyde. The following antibodies were used: anti-Smad1 antibody, 1:100 (Santa Cruz Biotechnology); anti-pSmad1 antibody, 1:100 (Calbiochem). An appropriate fluoresceine isothiocyanate-conjugated secondary antibody was used for visualization and imaging was done using a laser microscope and a fluorescent microscope (Olympus, Tokyo, Japan).
The antisense oligonucleotide used was a 25-nucleotide morpholino oligo (Genetools LLC, Philomath, Oreg.). The sequence is 5′-[…]-3′ (SEQ ID NO: 13). As a control, an oligo with the base composition 5′-CAtGCTcGTCACATTCAaAGCcGCT-3′ (SEQ ID NO: 18) was used. In vitro RNA transcription was performed as previously described (S7).

Substance | AGEs-mediated overproduction (overexpression) of Col4 | AGEs-mediated induction of Smad1
antisense oligo to Smad1: 25-nucleotide morpholino oligo, 5′-CAAGCTGGTCACATTCATAGCGGCT-3′ (SEQ ID NO: 13) (all phosphorodiamidate morpholino (PMO)) | remarkably attenuates | completely abolished
Smad1 mismatch oligo: control oligo 5′-CAtGCTcGTCACATTCAaAGCcGCT-3′ (SEQ ID NO: 18) (CATGCTCGTCACATTCAAAGCCGCT; listed as DNA, chemistry not given here) | no effect | not
